Patent US20140235689A1, “FUNGICIDAL PYRAZOLES” (E I DU PONT DE NEMOURS AND COMPANY, priority 2013, published 2014)

How the values were obtained:
Type in all cases: in vivo
[1] = system: Alternaria solani; assay: Test B: tomato early blight, preventive spray on tomato seedlings; conditions: 200 ppm test suspension, inoculated following day, visual rating, relative to controls
Experimental: General protocol for preparing test suspensions for Tests A-D: the test compounds were first dissolved in acetone in an amount equal to 3% of the final volume and then suspended at the desired concentration (in ppm) in acetone and purified water (50/50 mix by volume) containing 250 ppm of the surfactant Trem® 014 (polyhydric alcohol esters). The resulting test suspensions were then used in Tests A-G. Each test was conducted in triplicate, and the results were averaged. Spraying a 200 ppm test suspension to the point of run-off on the test plants was the equivalent of a rate of 800 g/ha. Unless otherwise indicated, the rating values indicate a 200 ppm test suspension was used. (An asterisk “*” next to the rating value indicates a 40 ppm test suspension was used.) The test suspension was sprayed to the point of run-off on tomato seedlings. The following day the seedlings were inoculated with a spore suspension of Alternaria solani (the causal agent of tomato early blight) and incubated in a saturated atmosphere at 27° C. for 48 h, and then moved to a growth chamber at 20° C. for 5 days, after which time visual disease ratings were made. Results for Tests A-G are given in Table A. In the Table, a rating of 100 indicates 100% disease control and a rating of 0 indicates no disease control (relative to the controls). A hyphen (-) indicates no test results.

[2] = system: Septoria nodorum; assay: Test C: Septoria glume blotch, preventive spray on wheat seedlings; conditions: 200 ppm test suspension, inoculated following day, visual rating, relative to controls
Experimental: General protocol for preparing test suspensions for Tests A-D: the test compounds were first dissolved in acetone in an amount equal to 3% of the final volume and then suspended at the desired concentration (in ppm) in acetone and purified water (50/50 mix by volume) containing 250 ppm of the surfactant Trem® 014 (polyhydric alcohol esters). The resulting test suspensions were then used in Tests A-G. Each test was conducted in triplicate, and the results were averaged. Spraying a 200 ppm test suspension to the point of run-off on the test plants was the equivalent of a rate of 800 g/ha. Unless otherwise indicated, the rating values indicate a 200 ppm test suspension was used. (An asterisk “*” next to the rating value indicates a 40 ppm test suspension was used.) The test suspension was sprayed to the point of run-off on wheat seedlings. The following day the seedlings were inoculated with a spore suspension of Septoria nodorum (the causal agent of Septoria glume blotch) and incubated in a saturated atmosphere at 24° C. for 48 h, and then moved to a growth chamber at 20° C. for 9 days, after which time visual disease ratings were made. Results for Tests A-G are given in Table A. In the Table, a rating of 100 indicates 100% disease control and a rating of 0 indicates no disease control (relative to the controls). A hyphen (-) indicates no test results.

[3] = system: Septoria tritici; assay: Test D: wheat leaf blotch, preventive spray on wheat seedlings; conditions: 200 ppm test suspension, inoculated following day, visual rating, relative to controls
Experimental: General protocol for preparing test suspensions for Tests A-D: the test compounds were first dissolved in acetone in an amount equal to 3% of the final volume and then suspended at the desired concentration (in ppm) in acetone and purified water (50/50 mix by volume) containing 250 ppm of the surfactant Trem® 014 (polyhydric alcohol esters). The resulting test suspensions were then used in Tests A-G. Each test was conducted in triplicate, and the results were averaged. Spraying a 200 ppm test suspension to the point of run-off on the test plants was the equivalent of a rate of 800 g/ha. Unless otherwise indicated, the rating values indicate a 200 ppm test suspension was used. (An asterisk “*” next to the rating value indicates a 40 ppm test suspension was used.) The test suspension was sprayed to the point of run-off on wheat seedlings. The following day the seedlings were inoculated with a spore suspension of Septoria tritici (the causal agent of wheat leaf blotch) and incubated in saturated atmosphere at 24° C. for 48 h. and then the seedlings were moved to a growth chamber at 20° C. for 19 additional days, after which time visual disease ratings were made. Results for Tests A-G are given in Table A. In the Table, a rating of 100 indicates 100% disease control and a rating of 0 indicates no disease control (relative to the controls). A hyphen (-) indicates no test results.

[4] = system: Puccinia recondita f. sp. tritici; assay: Test E: wheat leaf rust, spray after inoculation (curative) on wheat seedlings; conditions: 200 ppm test suspension, wheat seedlings sprayed after inoculation, visual rating, relative to controls
Experimental: General protocol for preparing test suspensions for Tests A-D: the test compounds were first dissolved in acetone in an amount equal to 3% of the final volume and then suspended at the desired concentration (in ppm) in acetone and purified water (50/50 mix by volume) containing 250 ppm of the surfactant Trem® 014 (polyhydric alcohol esters). The resulting test suspensions were then used in Tests A-G. Each test was conducted in triplicate, and the results were averaged. Spraying a 200 ppm test suspension to the point of run-off on the test plants was the equivalent of a rate of 800 g/ha. Unless otherwise indicated, the rating values indicate a 200 ppm test suspension was used. (An asterisk “*” next to the rating value indicates a 40 ppm test suspension was used.) Wheat seedlings were inoculated with a spore suspension of Puccinia recondita f. sp. tritici (the causal agent of wheat leaf rust) and incubated in a saturated atmosphere at 20° C. for 24 h, and then moved to a growth chamber at 20° C. for 2 days. After 2 days, the test suspension was sprayed to the point of run-off on the wheat seedlings, and then the seedlings were moved back to the growth chamber at 20° C. for 4 days. Upon removal, visual disease ratings were made. […]

[5] = system: Puccinia recondita f. sp. tritici; assay: Test F: wheat leaf rust, preventive spray on wheat seedlings; conditions: 200 ppm test suspension, inoculated following day, visual rating, relative to controls
Experimental: General protocol for preparing test suspensions for Tests A-D: the test compounds were first dissolved in acetone in an amount equal to 3% of the final volume and then suspended at the desired concentration (in ppm) in acetone and purified water (50/50 mix by volume) containing 250 ppm of the surfactant Trem® 014 (polyhydric alcohol esters). The resulting test suspensions were then used in Tests A-G. Each test was conducted in triplicate, and the results were averaged. Spraying a 200 ppm test suspension to the point of run-off on the test plants was the equivalent of a rate of 800 g/ha. Unless otherwise indicated, the rating values indicate a 200 ppm test suspension was used. (An asterisk “*” next to the rating value indicates a 40 ppm test suspension was used.) The test suspension was sprayed to the point of run-off on wheat seedlings. The following day the seedlings were inoculated with a spore suspension of Puccinia recondita f. sp. tritici (the causal agent of wheat leaf rust) and incubated in a saturated atmosphere at 20° C. for 24 h, and then moved to a growth chamber at 20° C. for 6 days, after which time visual disease ratings were made. Results for Tests A-G are given in Table A. In the Table, a rating of 100 indicates 100% disease control and a rating of 0 indicates no disease control (relative to the controls). A hyphen (-) indicates no test results.

[6] = system: Blumeria graminis f. sp. tritici; assay: Test G: wheat powdery mildew, preventive spray on wheat seedlings; conditions: 200 ppm test suspension, inoculated following day with spore dust, visual rating, relative to controls
Experimental: General protocol for preparing test suspensions for Tests A-D: the test compounds were first dissolved in acetone in an amount equal to 3% of the final volume and then suspended at the desired concentration (in ppm) in acetone and purified water (50/50 mix by volume) containing 250 ppm of the surfactant Trem® 014 (polyhydric alcohol esters). The resulting test suspensions were then used in Tests A-G. Each test was conducted in triplicate, and the results were averaged. Spraying a 200 ppm test suspension to the point of run-off on the test plants was the equivalent of a rate of 800 g/ha. Unless otherwise indicated, the rating values indicate a 200 ppm test suspension was used. (An asterisk “*” next to the rating value indicates a 40 ppm test suspension was used.) The test suspension was sprayed to the point of run-off on wheat seedlings. The following day the seedlings were inoculated with a spore dust of Blumeria graminis f. sp. tritici (also known as Erysiphe graminis f. sp. tritici, the causal agent of wheat powdery mildew) and incubated in a growth chamber at 20° C. for 8 days, after which time visual disease ratings were made. Results for Tests A-G are given in Table A. In the Table, a rating of 100 indicates 100% disease control and a rating of 0 indicates no disease control (relative to the controls). A hyphen (-) indicates no test results.

[7] = system: Botrytis cinerea; assay: Test A: tomato Botrytis, preventive spray on tomato seedlings; conditions: 200 ppm test suspension, inoculated following day, visual rating, relative to controls
Experimental: General protocol for preparing test suspensions for Tests A-D: the test compounds were first dissolved in acetone in an amount equal to 3% of the final volume and then suspended at the desired concentration (in ppm) in acetone and purified water (50/50 mix by volume) containing 250 ppm of the surfactant Trem® 014 (polyhydric alcohol esters). The resulting test suspensions were then used in Tests A-G. Each test was conducted in triplicate, and the results were averaged. Spraying a 200 ppm test suspension to the point of run-off on the test plants was the equivalent of a rate of 800 g/ha. Unless otherwise indicated, the rating values indicate a 200 ppm test suspension was used. (An asterisk “*” next to the rating value indicates a 40 ppm test suspension was used.) The test suspension was sprayed to the point of run-off on tomato seedlings. The following day the seedlings were inoculated with a spore suspension of Botrytis cinerea (the causal agent of tomato Botrytis) and incubated in saturated atmosphere at 20° C. for 48 h, and then moved to a growth chamber at 24° C. for 3 additional days, after which time visual disease ratings were made. Results for Tests A-G are given in Table A. In the Table, a rating of 100 indicates 100% disease control and a rating of 0 indicates no disease control (relative to the controls). A hyphen (-) indicates no test results.

| SMILES | Test B disease control rating (100 = 100% disease control, 0 = no disease control) [1] | Test C disease control rating (100 = 100% disease control, 0 = no disease control) [2] | Test D disease control rating (100 = 100% disease control, 0 = no disease control) [3] | Test E disease control rating (100 = 100% disease control, 0 = no disease control) [4] | Test F disease control rating (100 = 100% disease control, 0 = no disease control) [5] | Test G disease control rating (100 = 100% disease control, 0 = no disease control) [6] | Test A disease control rating (100 = 100% disease control, 0 = no disease control) [7] |
| --- | --- | --- | --- | --- | --- | --- | --- |
| CNC(c1ccc(F)cc1F)c1c(-c2c(F)cccc2F)c(C)nn1C (stereo not drawn) [Compound 2, α-(2,4-difluorophenyl)-4-(2,6-difluorophenyl)-N,1,3-trimethyl-1H-pyrazol-5-methanamine] | 0 | 0 | 99 | 0 | 0 | 82 | – |
| CSC(c1ccc(F)cc1F)c1c(-c2c(F)cccc2F)c(C)nn1C (centres unmarked) [Compound 4, 4-(2,6-difluorophenyl)-5-[(2,4-difluorophenyl)(methylthio)methyl]-1,3-dimethyl-1H-pyrazole] | 0 | 0 | 99 | 9 | 85 | 82 | 31 |
| Cc1nn(C)c(C(N)c2ccc(F)cc2F)c1-c1c(F)cccc1F (stereo not drawn) [Compound 3, α-(2,4-difluorophenyl)-4-(2,6-difluorophenyl)-1,3-dimethyl-1H-pyrazol-5-methanamine] | – | – | 100 | – | 99 | 98 | 98 |
